The values that follow come from article PMC6199744, “Development of Chemical Proteomics for the Folateome and Analysis of the Kinetoplastid Folateome” (ACS Infectious Diseases, 2018).

Like-named read-outs stand apart in the source and are kept apart here.

What all share (type): binding
The target in experiment [1] is T1, HeLa cell extract proteins (Homo sapiens, UniProt P12004).
T1 construct: endogenous in cells; host or cells: HeLa cell extract

Experiment [2] concerns the target T2, HeLa cell extract proteins (Homo sapiens, UniProt P22102).
T2 construct: endogenous in cells; host or cells: HeLa cell extract
T2 sequence (P22102 1-1010): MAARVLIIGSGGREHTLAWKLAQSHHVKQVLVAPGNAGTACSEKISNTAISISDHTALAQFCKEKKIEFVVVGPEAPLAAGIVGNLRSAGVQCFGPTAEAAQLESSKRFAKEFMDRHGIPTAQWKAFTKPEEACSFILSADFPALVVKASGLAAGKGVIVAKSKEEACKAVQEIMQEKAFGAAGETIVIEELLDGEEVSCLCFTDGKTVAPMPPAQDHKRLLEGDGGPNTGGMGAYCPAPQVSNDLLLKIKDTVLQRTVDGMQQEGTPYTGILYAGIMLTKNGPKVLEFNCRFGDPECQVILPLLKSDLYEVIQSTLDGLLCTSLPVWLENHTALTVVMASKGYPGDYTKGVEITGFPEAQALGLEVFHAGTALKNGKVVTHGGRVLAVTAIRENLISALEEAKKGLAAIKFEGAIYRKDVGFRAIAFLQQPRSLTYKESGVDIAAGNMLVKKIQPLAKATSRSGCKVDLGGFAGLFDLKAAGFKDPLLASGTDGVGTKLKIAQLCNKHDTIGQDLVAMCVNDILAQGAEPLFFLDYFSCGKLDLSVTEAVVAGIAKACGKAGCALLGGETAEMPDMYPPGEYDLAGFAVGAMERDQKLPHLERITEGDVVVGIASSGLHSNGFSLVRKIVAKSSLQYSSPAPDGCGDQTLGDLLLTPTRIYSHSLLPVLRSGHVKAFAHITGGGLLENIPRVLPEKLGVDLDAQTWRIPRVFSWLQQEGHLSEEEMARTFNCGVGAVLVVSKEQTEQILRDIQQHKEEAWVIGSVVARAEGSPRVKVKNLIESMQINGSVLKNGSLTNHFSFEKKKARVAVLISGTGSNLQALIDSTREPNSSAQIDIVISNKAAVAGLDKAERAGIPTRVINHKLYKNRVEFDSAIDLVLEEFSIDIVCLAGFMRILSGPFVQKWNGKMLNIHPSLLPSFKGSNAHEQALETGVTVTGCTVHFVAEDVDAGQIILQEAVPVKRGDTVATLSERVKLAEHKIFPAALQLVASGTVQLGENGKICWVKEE

Experiment [3] has as its target T3, HeLa cell extract proteins (Homo sapiens, UniProt Q9H479).
T3 construct: endogenous in cells; host or cells: HeLa cell extract
T3 sequence (Q9H479 1-309): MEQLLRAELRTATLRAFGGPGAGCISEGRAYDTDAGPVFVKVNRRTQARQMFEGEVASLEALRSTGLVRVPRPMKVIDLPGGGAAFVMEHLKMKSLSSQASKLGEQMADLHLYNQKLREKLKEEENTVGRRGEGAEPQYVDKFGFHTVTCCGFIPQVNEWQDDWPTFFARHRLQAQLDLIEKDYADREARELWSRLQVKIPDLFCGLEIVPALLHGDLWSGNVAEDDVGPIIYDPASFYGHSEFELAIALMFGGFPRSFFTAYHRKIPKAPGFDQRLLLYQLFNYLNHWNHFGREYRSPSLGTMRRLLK

Experiment [4] concerns the target T4, HeLa cell extract proteins (Homo sapiens, UniProt Q99460).
T4 construct: endogenous in cells; host or cells: HeLa cell extract

For experiment [5], the target named is T5, HeLa cell extract proteins (Homo sapiens, UniProt P07437).
T5 construct: endogenous in cells; host or cells: HeLa cell extract
T5 sequence (P07437 whole entry): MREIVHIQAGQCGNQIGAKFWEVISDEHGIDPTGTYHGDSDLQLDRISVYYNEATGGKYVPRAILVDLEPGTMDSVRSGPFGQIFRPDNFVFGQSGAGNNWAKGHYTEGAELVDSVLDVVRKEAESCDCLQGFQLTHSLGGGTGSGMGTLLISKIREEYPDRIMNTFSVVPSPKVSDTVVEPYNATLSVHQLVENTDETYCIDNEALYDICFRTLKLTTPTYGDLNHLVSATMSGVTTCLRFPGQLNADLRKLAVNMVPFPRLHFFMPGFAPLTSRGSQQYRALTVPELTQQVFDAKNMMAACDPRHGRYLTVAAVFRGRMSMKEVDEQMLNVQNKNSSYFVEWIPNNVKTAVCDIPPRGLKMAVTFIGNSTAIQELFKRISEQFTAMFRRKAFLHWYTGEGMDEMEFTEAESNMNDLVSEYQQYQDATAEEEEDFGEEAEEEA

The target of experiment [6] is T6, HeLa cell extract proteins (Homo sapiens, UniProt Q9UI12).
T6 construct: endogenous in cells; host or cells: HeLa cell extract
T6 sequence (Q9UI12 whole entry): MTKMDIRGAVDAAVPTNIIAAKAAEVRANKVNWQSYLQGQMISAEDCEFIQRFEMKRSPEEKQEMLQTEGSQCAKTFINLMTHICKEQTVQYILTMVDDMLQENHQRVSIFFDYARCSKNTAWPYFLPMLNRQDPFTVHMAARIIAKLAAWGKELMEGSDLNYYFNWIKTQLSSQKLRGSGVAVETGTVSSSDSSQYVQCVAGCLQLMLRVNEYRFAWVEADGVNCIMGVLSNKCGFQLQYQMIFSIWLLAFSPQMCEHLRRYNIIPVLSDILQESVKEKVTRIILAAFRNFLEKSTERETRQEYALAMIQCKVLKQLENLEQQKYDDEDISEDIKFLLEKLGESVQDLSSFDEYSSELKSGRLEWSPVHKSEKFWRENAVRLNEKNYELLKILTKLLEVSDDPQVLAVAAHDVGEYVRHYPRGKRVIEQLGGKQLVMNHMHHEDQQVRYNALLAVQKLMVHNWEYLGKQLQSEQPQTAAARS

Experiment [7] has as its target T7, HeLa cell extract proteins (Homo sapiens, UniProt P04406).
T7 construct: endogenous in cells; host or cells: HeLa cell extract

Experiment [8] deals with T8, HeLa cell extract proteins (Homo sapiens, UniProt P52272).
T8 construct: endogenous in cells; host or cells: HeLa cell extract
T8 sequence (P52272 1-730): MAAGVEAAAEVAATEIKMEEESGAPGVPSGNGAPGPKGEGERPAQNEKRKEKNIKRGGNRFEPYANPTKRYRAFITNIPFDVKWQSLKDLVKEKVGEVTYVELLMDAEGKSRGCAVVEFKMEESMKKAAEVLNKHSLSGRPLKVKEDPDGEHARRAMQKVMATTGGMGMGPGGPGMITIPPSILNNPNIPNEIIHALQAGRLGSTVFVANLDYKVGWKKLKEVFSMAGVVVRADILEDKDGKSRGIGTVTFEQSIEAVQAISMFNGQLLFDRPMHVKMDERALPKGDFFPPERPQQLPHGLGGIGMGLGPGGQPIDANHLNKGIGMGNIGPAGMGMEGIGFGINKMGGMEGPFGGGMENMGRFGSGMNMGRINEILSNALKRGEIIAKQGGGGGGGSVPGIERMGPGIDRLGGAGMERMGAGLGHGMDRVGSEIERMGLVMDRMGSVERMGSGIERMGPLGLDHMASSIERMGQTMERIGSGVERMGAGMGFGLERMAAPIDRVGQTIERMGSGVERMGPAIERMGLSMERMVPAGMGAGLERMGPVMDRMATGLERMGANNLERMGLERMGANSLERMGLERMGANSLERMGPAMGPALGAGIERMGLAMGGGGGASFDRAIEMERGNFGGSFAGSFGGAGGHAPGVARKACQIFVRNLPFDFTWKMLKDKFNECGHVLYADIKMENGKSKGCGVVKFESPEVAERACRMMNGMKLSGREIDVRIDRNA

Where [9] appears, read: HeLa, protein FN3K (FRUCTOSAMINE-3-KINASE).
Setting [10] is: HeLa, protein G3P1_HUMAN (GLYCERALDEHYDE-3-PHOSPHATE DEHYDROGENASE, MUSCLE.).
The mark [11] stands for this setting: HeLa, protein GAPDH (39 KDA PROTEIN.).

T4 sequence (Q99460 whole entry): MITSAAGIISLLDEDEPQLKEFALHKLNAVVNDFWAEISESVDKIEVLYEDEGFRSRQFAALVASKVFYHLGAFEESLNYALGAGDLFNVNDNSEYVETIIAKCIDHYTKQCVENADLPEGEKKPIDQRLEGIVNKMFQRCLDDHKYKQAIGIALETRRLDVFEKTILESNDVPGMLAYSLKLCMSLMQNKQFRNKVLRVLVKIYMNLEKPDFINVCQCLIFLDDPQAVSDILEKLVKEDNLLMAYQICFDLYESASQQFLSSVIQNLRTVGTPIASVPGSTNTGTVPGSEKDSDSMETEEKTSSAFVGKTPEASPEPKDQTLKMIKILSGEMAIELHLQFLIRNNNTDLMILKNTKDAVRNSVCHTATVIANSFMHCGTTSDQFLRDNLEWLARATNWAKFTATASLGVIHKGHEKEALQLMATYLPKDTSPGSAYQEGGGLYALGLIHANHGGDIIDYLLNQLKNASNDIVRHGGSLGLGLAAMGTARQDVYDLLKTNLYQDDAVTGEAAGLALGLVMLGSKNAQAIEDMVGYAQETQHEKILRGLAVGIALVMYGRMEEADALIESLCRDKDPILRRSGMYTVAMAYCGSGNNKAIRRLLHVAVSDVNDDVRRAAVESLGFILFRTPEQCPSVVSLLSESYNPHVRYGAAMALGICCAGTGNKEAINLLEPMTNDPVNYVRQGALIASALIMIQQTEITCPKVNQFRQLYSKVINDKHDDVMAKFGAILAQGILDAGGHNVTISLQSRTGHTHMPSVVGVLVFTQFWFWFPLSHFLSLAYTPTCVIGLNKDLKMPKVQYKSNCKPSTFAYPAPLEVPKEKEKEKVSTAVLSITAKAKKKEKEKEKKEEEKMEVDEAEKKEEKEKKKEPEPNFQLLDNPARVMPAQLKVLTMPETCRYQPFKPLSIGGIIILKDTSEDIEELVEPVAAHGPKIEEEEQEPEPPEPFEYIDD
T7 sequence (P04406 whole entry): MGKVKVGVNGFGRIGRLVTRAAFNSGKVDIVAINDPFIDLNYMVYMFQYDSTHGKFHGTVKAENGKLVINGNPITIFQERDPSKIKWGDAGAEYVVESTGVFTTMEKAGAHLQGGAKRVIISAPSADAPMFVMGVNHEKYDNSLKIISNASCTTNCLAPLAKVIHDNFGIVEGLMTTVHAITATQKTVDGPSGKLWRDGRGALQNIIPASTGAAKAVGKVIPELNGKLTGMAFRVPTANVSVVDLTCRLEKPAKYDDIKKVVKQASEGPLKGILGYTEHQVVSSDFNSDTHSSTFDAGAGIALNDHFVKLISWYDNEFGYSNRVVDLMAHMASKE
T1 sequence (P12004 whole entry): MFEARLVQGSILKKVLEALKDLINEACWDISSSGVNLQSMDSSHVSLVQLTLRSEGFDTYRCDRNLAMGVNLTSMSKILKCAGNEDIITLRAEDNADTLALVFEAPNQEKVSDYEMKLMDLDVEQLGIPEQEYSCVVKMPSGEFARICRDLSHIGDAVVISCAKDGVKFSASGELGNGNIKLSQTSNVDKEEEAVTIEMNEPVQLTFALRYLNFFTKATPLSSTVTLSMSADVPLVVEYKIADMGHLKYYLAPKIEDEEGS

As for `Nc1nc2c(c(=O)[nH]1)N(C=O)C(CNc1ccc(C(=O)N[C@@H](CCC(=O)O)C(=O)O)cc1)CN2` (some centres unmarked) [LEU, leucovorin], the “fold changes relative to vehicle control” value in experiment [1] (HeLa, captured protein PCNA) was 1.25; in experiment [2] (protein GART, HeLa) it was 0.66; in experiment [3] (setting [9]), 0.93; in experiment [4] (protein PSMD1, HeLa) it was 0.88; in experiment [5] (protein TUBB, HeLa), 0.91; in experiment [6] (HeLa, protein ATP6V1H), 1.04. Also, the “fold changes relative to vehicle control” value in experiment [7] (protein GAPDH, HeLa) came to 1.01; in experiment [8] (HeLa, captured protein HNRNPM) it was 0.83.
For `Nc1nc2[nH]cc(CCc3ccc(C(=O)N[C@@H](CCC(=O)O)C(=O)O)cc3)c2c(=O)[nH]1` [PTX, pemetrexed], the “fold changes relative to vehicle control” value was determined as 1.29 in experiment [1]; 0.43 in experiment [2]; 0.88 in experiment [3]; 0.99 in experiment [4]; 0.84 in experiment [5]; 0.99 in experiment [6]. Further, the figures for the “fold changes relative to vehicle control” value in experiment [7] and in experiment [8] were 1.14 and 0.99, respectively.
Turning to `CCCCCCOc1ccc(Cc2cnc(N)nc2N)cc1` [compound 1], the “fold changes relative to vehicle control” value in experiment [1] (protein PCNA, HeLa) came out at 1.18; in experiment [2] (captured protein GART, HeLa), 0.94; in experiment [3] (protein FN3K, HeLa), 0.92; in experiment [4] (protein PSMD1, HeLa) it was 1.3; in experiment [5] (HeLa, protein TUBB), 0.93; in experiment [6] (HeLa, protein ATP6V1H), 1.24. Also, the “fold changes relative to vehicle control” value in experiment [7] (setting [10]) turned out to be 1.39 fold; in experiment [7] (setting [11]), 1.52 fold; in experiment [8] (HeLa, protein HNRNPM) it was 1.09.
As to `CCCCCCOc1cccc(Cc2cnc(N)nc2N)c1` [compound 2], the “fold changes relative to vehicle control” value in experiment [1] (protein PCNA, HeLa) is on record as 1.65; in experiment [2] (captured protein GART, HeLa), 1.03; in experiment [3] (protein FN3K, HeLa) it was 1.06; in experiment [4] (protein PSMD1, HeLa) it was 1.78; in experiment [5] (HeLa, protein TUBB), 0.82; in experiment [6] (HeLa, protein ATP6V1H) it was 1.21. Further, the “fold changes relative to vehicle control” value in experiment [7] (setting [10]) was 2.61 fold; in experiment [7] (setting [11]) it was 2.46 fold; in experiment [8] (HeLa, protein HNRNPM), 1.21.
As for `Nc1nc2cccc(-c3ccccc3)c2n1Cc1ccc(Cl)c(Cl)c1` [compound 3], the “fold changes relative to vehicle control” value turned out to be 0.77 in experiment [1] (protein PCNA, HeLa); 1.1 in experiment [2] (captured protein GART, HeLa); 1.09 in experiment [3] (protein FN3K, HeLa); 1.14 in experiment [4] (protein PSMD1, HeLa); 1.02 in experiment [5] (HeLa, protein TUBB); 1.17 in experiment [6] (HeLa, protein ATP6V1H). For the same compound, the “fold changes relative to vehicle control” value in experiment [7] (setting [10]) came to 0.84 fold; in experiment [7] (setting [11]), 0.95 fold; in experiment [8] (HeLa, protein HNRNPM), 0.88.
Turning to `NCCOCCOCC(=O)Nc1nc2ncc(CNc3ccc(C(=O)NC(CCC(=O)O)C(=O)O)cc3)nc2c(=O)[nH]1` (centres unmarked) [compound 6], the “fold changes relative to vehicle control” value in experiment [1] (HeLa, captured protein PCNA) stood at 1.47; in experiment [2] (protein GART, HeLa) it was 0.72; in experiment [3] (setting [9]), 0.94; in experiment [4] (protein PSMD1, HeLa), 1.08; in experiment [5] (protein TUBB, HeLa), 0.95; in experiment [6] (HeLa, protein ATP6V1H), 1.13. Moreover, the “fold changes relative to vehicle control” value in experiment [7] (protein GAPDH, HeLa) is 1.35; in experiment [8] (HeLa, captured protein HNRNPM), 1.01.
In the case of `NCCCNc1ccc(C(=O)NC(CCC(=O)O)C(=O)O)cc1` (centres unmarked) [compound 7], the “fold changes relative to vehicle control” value in experiment [1] (HeLa, captured protein PCNA) was found to be 1.02; in experiment [2] (protein GART, HeLa), 1.14; in experiment [3] (setting [9]), 0.99; in experiment [4] (protein PSMD1, HeLa), 1.16; in experiment [5] (protein TUBB, HeLa), 0.98; in experiment [6] (HeLa, protein ATP6V1H), 1.01. The “fold changes relative to vehicle control” value worked out at 0.97 in experiment [7] (protein GAPDH, HeLa) and 1.02 in experiment [8] (HeLa, captured protein HNRNPM).
